Assay results published in patent publication US20140030368A1, “COMPOSITION FOR PREVENTING OR TREATING A RESPIRATORY DISEASE CONTAINING A MIXED HERBAL EXTRACT OF CNIDIUM OFFICINALE ROOT AND POLYGONI CUSPIDATI ROOT” (WHANIN PHARMACEUTICAL CO., LTD., priority 2011, published 2014).

Assays:
Assay type in all cases: in vivo, mice
IL-4 (interleukin-4) = assay: T cell-derived cytokine from lung tissue, ovalbumin-induced asthma/COPD model
Procedure: In order to examine whether the extract of the present invention has the effect of inhibiting adaptive immune responses in an ovalbumin (OVA)-induced asthma/chronic obstructive pulmonary disease model, the content of T cell-derived cytokines isolated from lung tissue was measured (see Seong Gyu Jeon et al., J. Allergy Clin. Immunol., 2007, 119, 831-837).
Specifically, a mixture of 75 μg of ovalbumin (OVA, Sigma) and 2 mg of aluminum hydroxide (Alum, Sigma) was intraperitoneally administered twice (days 0 and 7) into BALB/c female mice (6 weeks old; provided from Animal Laboratory in Biotech Center, Pohang University of Science & Technology) to sensitize the mice. At 14, 15 and 21 days after the first sensitization date, 50 μg of ovalbumin in PBS was challenged into the nasal cavity to induce asthma and chronic obstructive pulmonary disease. […]
Then, the lung tissue was finely cut with a blade and incubated with 5 ml of 1× Trypsin-EDTA and 1000 units of chollagenase at 37° C. for 10 […]. […] Then, the supernatant was collected, and the amount of cytokine IL-4 (interleukin-4) in the supernatant was measured using an ELISA (enzyme-linked immunosorbent assay).

IFN-γ (interferon-γ) = assay: T cell-derived cytokine from lung tissue, LPS-induced asthma/COPD model (ELISA); conditions: ovalbumin + LPS model
Procedure: (§1) In order to examine whether the extract of the present invention has the effect of inhibiting T cell-derived cytokine isolated from the lung tissue of an LPS-derived asthma/chronic obstructive pulmonary disease model, the following test was performed.
(§2) Specifically, the LPS-induced asthma/chronic obstructive pulmonary disease model was prepared by treatment with each of the extract of Example 2 and a comparative drug in the same manner as described in Test Example 7-1. At 6 hours after the final challenge, the mice were anesthetized by intraperitoneal injection with ketamine and xylazine, and lung tissue was obtained from the mice. The lung tissue was cut finely with a blade and incubated with 5 ml of 1× Trypsin-EDTA and 1000 units of chollagenase at 37° C. for 10 minutes. Then, the tissue was passed through a 100 μm mesh to collect only immune cells. To stimulate T cells among the collected cells, 1×10^5 cells and anti-CD28 (1 μg/ml) were added to a 96-well plate coated with anti-CD3 (1 μg/ml) and were incubated in an incubator at 37° C. for 12 hours. Next, the supernatant was collected, and the amounts of the cytokines IL-17 (interleukin 17) and IFN-γ (interferon-γ) in the supernatant were measured using an ELISA (enzyme-linked immunosorbent assay).

IL-17 (interleukin 17) = assay: as above; conditions: ovalbumin + LPS model
Procedure: as §1, §2

[1] = system: inflammatory cells in pulmonary bronchoalveolar lavage; assay: Inflammatory cells in pulmonary bronchoalveolar lavage, E. coli-EV-induced asthma/COPD model
Procedure: Whether the extract of the present invention has the effect of inhibiting pulmonary bronchial inflammation in an E. coli-EV-induced asthma/chronic obstructive pulmonary disease model was evaluated.
Specifically, a mixture of 10 ng of E. coli-EV and PBS was intranasally administered a total of four times (days 0, 1, 2 and 7) into C57BL/6 male mice (6 weeks old; provided from the Animal Laboratory in Biotech Center, Pohang University of Science & Technology) to sensitize the mice. At 14, 15, 21 and 22 days from the first sensitization date, 10 ng of E. coli-EV was challenged into the nasal cavity to induce asthma and chronic obstructive pulmonary disease. In addition, at 14, 15, 21 and 22 days at which the challenge was performed, each of 1.0% CMC, 100, 200 and 400 mg/10 ml/kg of the extract of Example 2, 1 mg/10 ml/kg of the comparative drug dexamethason and 10 mg/10 ml/kg of the comparative drug montelukast was orally administered twice a day. At 48 hours after the final challenge, the mice were anesthetized by intraperitoneal administration of ketamine and xylazine, and the organ of the mice was exposed and a catheter was inserted therein. Then, the bronchoalveoli were laved with each of 0.8 and 0.7 ml of sterile phosphate buffered saline to obtain a bronchoalveolar lavage The bronchoalveolar lavage was centrifuged at 4° C. at 1000 rpm for 5 minutes, and the supernatant was removed. 2 ml of 10% FBS-IMDM (fetal bovine serum—Iscove's Modified Dulbecco's Medium) was added to the cells which were then counted. Then, the cells were cytospun, plated on a slide, and Diff-Quick stained. At least 300 inflammatory cells were observed by the staining method and classified into eosinophils, macrophages, neutrophils and lymphocytes, and the cell numbers of the groups treated with dexamethason, montelukast and the extract of Example 2 were compared with the ratios of inflammatory cells in the pulmonary bronchoalveolar lavages of the negative control group and the positive control group, thereby evaluating the inhibitory effects of the test materials against airway inflammation.

IFN-γ = assay: T cell-derived cytokine from lung tissue, E. coli-EV-induced model (ELISA)
Procedure: (§3) In order to examine whether the extract of the present invention has the effect of inhibiting T cell-derived cytokine isolated from the lung tissue of an E. coli-EV-derived asthma/chronic obstructive pulmonary disease model, the following test was performed.
(§4) Specifically, the […] asthma/chronic obstructive pulmonary disease model was prepared by treatment with each of the extract of Example 2 and a comparative drug in the same manner as described in Test Example 8-1. At 6 hours after the final challenge, the mice were anesthetized by intraperitoneal injection with ketamine and xylazine, and lung tissue was obtained from the mice. The lung tissue was cut finely with a blade and incubated with 5 ml of 1× Trypsin-EDTA and 1000 units of chollagenase at 37 °C for 10 minutes. Then, the tissue was passed through a 100 μm mesh to collect only immune cells. To stimulate T cells among the collected cells, 1×10^5 cells and anti-CD28 (1 μg/ml) were added to a 96-well plate coated with anti-CD3 (1 μg/ml) and were incubated in an incubator at 37° C. for 12 hours. Next, the supernatant was collected, and the amounts of cytokines in the supernatant were measured using an ELISA assay.

IL-17 = assay: as above
Procedure: as §3, §4

Structure (SMILES)	IL-4 inhibition rate (%) (IL-4 (interleukin-4); 1 mg/kg b.i.d. oral)	IFN-γ inhibition rate (%) (IFN-γ (interferon-γ); 1 mg/kg b.i.d.)	IL-17 inhibition rate (%) (IL-17 (interleukin 17); 1 mg/kg b.i.d.)	Inhibition rate(%) Eosinophils ([1]; 1 mg/kg b.i.d.)	Inhibition rate(%) Macrophages ([1]; 1 mg/kg b.i.d.)	Inhibition rate(%) Total cells ([1]; 1 mg/kg b.i.d.)	IFN-γ inhibition rate (%) (IFN-γ; 1 mg/kg b.i.d.)	IL-17 inhibition rate (%) (IL-17; 1 mg/kg b.i.d.)	IL-4 inhibition rate (%) (IL-4 (interleukin-4); 10 mg/kg b.i.d. oral)	IFN-γ inhibition rate (%) (IFN-γ (interferon-γ); 10 mg/kg b.i.d.)	IL-17 inhibition rate (%) (IL-17 (interleukin 17); 10 mg/kg b.i.d.)	Inhibition rate(%) Eosinophils ([1]; 10 mg/kg b.i.d.)	Inhibition rate(%) Macrophages ([1]; 10 mg/kg b.i.d.)	Inhibition rate(%) Total cells ([1]; 10 mg/kg b.i.d.)	IFN-γ inhibition rate (%) (IFN-γ; 10 mg/kg b.i.d.)	IL-17 inhibition rate (%) (IL-17; 10 mg/kg b.i.d.)
C[C@@H]1C[C@H]2[C@@H]3CCC4=CC(=O)C=C[C@]4(C)[C@@]3(F)[C@@H](O)C[C@]2(C)[C@@]1(O)C(=O)CO [Dexamethason, dexamethason]	43.57%	15.19%	23.12%	1.1%	24.7%	9.2%	1.13%	1.12%	–	–	–	–	–	–	–	–
CC(C)(O)c1ccccc1CC[C@@H](SCC1(CC(=O)O)CC1)c1cccc(/C=C/c2ccc3ccc(Cl)cc3n2)c1 [montelukast]	–	–	–	–	–	–	–	–	14.07%	14.50%	68.42%	15.4%	1.3%	1.2%	0.23%	0.22%
